Source: ChEMBL document CHEMBL5331076, “Streptogramin A derivatives as mitochondrial translation inhibitors to suppress glioblastoma stem cell growth” (Eur J Med Chem, 2023)
Calls of active or inactive are those of the source. The rule behind the calls is not given here.

Key:
COMI [1] = assay: Growth inhibition of human COMI cells; type: functional
VIPI = assay: Growth inhibition of human VIPI cells; type: functional
COMI [2] = assay: Growth inhibition of human COMI cells incubated for 48 hrs by Hoechst 33342/PI staining based analysis; type: functional
COMI [3] = assay: Growth inhibition of human COMI cells incubated for 48 hrs in the presence of quinupristin by Hoechst 33342/PI staining based analysis; type: functional
COMI [4] = assay: Inhibition of mitochondrial translation in human COMI cells assessed as decrease in ND3 expression level at >25 uM incubated for 48 hrs by immunoblotting analysis; type: functional, cell-based
COMI [5] = assay: Inhibition of mitochondrial translation in human COMI cells assessed as decrease in COX1 expression level at >25 uM incubated for 48 hrs by immunoblotting analysis; type: functional, cell-based
COMI [6] = assay: Inhibition of mitochondrial translation in human COMI cells assessed as decrease in COX2 expression level at >25 uM incubated for 48 hrs by immunoblotting analysis; type: functional, cell-based
COMI [7] = assay: Inhibition of mitochondrial translation in human COMI cells assessed as increase in COX4 expression level at >25 uM incubated for 48 hrs by immunoblotting analysis; type: functional, cell-based

Compound | GI50 (COMI [1]) [µM] | GI50 (VIPI) [µM] | GI50 (COMI [2]) [µM] | GI50 (COMI [3]) [µM] | inhibition (COMI [4]) | inhibition (COMI [5]) | inhibition (COMI [6]) | inhibition (COMI [7])
Cn1nnc2c(C(N)=O)ncn2c1=O [TEMOZOLOMIDE] | 96.5 | 338 |  |  |  |  |  | 
CCN(CC)CCNC1CCN2C(=O)c3coc(n3)C[C@H](O)C[C@H](O)/C=C(C)/C=C/CNC(=O)/C=C/[C@@H](C)[C@@H](C(C)C)OC(=O)C12 (some centres undefined) |  |  | > 100 | 16.9 | Active | Active | Active | Active
CCN(CC)CCOC1CCN2C(=O)c3coc(n3)C[C@H](O)C[C@H](O)/C=C(C)/C=C/CNC(=O)/C=C/[C@@H](C)[C@@H](C(C)C)OC(=O)C12 (some centres undefined) |  |  | 85.3 | 14 | Active | Active | Active | Active
